The text below walks through data of patent US20150166667A1, “METHODS AND COMPOSITIONS FOR TREATING CANCER” (RAMOT AT TEL-AVIV UNIVERSITY LTD., priority 2012, published 2015).

The test system of assay [1] is human HaCaT skin cells. In words: In vitro scratch closure assay, HaCaT cells with IR inactivated by siRNA. The format is cell-based. Conditions: FIG. 6B. On the procedure: (§1) Insulin and IGF1 treatment: Primary murine keratinocytes were grown for 6 days in culture. On the day of the experiment insulin (10^−6M) or IGF-1 (10^−7M) were added, after which a scratch was made by a micropipette tip (day 0). In some of the plates, proliferation was inhibited by adding 25 microgram/ml mitomycin C, 4 hours prior to culture wounding. In another set of experiments (E-F) insulin receptor was inactivated by siRNA in human HaCaT skin cells. The effects of insulin and IGF1 were measured as described above. In all experiments digital photos were taken at day 0 and 24 hours later (day 1), from which 20 randomly chosen photos were taken from each treatment group and further analyzed to determine the average remaining scratch width.
(§2) The effect of insulin on skin cell migration was assessed using an in vitro scratch closure assay. Keratinocytes were grown to confluency, were left untreated or were treated with insulin or IGF-1, in the absence (6A; top panel) or presence (6A; bottom panel) of mitomycin C. The cell layer was scratched by a tip, and the degree of closure was subsequently measured. The amount of migration of control cells in each group (with or without mitomycin C) was assigned the value 100%. The average of 4 separate experiments is depicted. […] Similar results were obtained in human HaCaT skin cells in which the insulin receptor was inactivated by siRNA.

In assay [2] the test system is primary keratinocytes and fibroblasts. In words: 3D skin organotypic coculture, epidermal differentiation. The conditions noted are these: for expression of K14 (marker of proliferating keratinocytes) / expression of the differentiation markers Keratin-1 and Loricrin: immunohistochemistry, 10^-6M insulin or 10^-7M IGF1, FIG. 3B. The format is cell-based, mice. On the procedure:
Primary keratinocytes and fibroblasts were isolated from WT mice, and organotypic cocultures were plated. Immediately afterwards, 10^−6M insulin or 10^−7M IGF1 was added to the growth medium and maintained throughout the experiment. Coculture inserts were further processed; H&E staining of a tissue section is shown. The effects of insulin and IGF1 on differentiation of human keratinocytes were tested in a 3-dimensional organotypic skin co-culture. In this model system, primary murine or human keratinocytes were plated on top of a fibroblast-containing collagen gel dermal equivalent. Within a few days under proper growth conditions, the 3D-organotypic coculture became organized, mimicking the histological structure of the skin tissue in vivo, including the skin epidermal layers as well as keratin formation. By mimicking the natural tissue architecture, such conditions enable keratinocytes to recapitulate their tissue-specific differentiation program in vitro.

In assay [3] the test system is keratin 1. The assay can be described thus: Keratin 1 assembly in differentiating skin cells (insoluble fraction, Western blot). The format is cell-based, mice. Conditions: cells induced to differentiate in presence of insulin or IGF1; FIG. 19. On the procedure: Primary skin cells were isolated from the SIRKO and IR (lox/lox) control mice and grown in culture. On day 3, the calcium concentration in the growth medium was raised from 0.05 mM to 0.12 mM to induce differentiation, and the culture was further maintained. On day 6, cells were harvested. To evaluate the effects of IR inactivation on the state of keratin filaments, cell lysates were fractionated into a Triton X-100-soluble fraction, containing the elementary keratin units, and a Triton-insoluble fraction, containing the mature keratin filaments. Western blot analysis was carried out on these fractions to estimate the amount of K1 present in each fraction, using Actin content as a loading control. […] A representative experiment of 4 repeats is depicted in the figures.
Background: In western blotting, separated proteins are transferred to a membrane and probed.

The test system of assay [4] is primary murine keratinocytes. The assay can be described thus: In vitro scratch closure assay, primary murine keratinocytes. The format is cell-based. On the procedure: as §1, §2
Assay [5] concerns SCC Cal 27 cells. In words: Proliferation of SCC Cal 27 cells by thymidine incorporation. The format is cell-based, human. The conditions noted are these: serum starved cells, 24 hours; FIG. 15C. On the procedure: SCC Cal 27 cells were grown in culture to 70% confluency. The cells were serum starved for 24 hours after which a blocking anti IR antibody (Thermo Scientific; Insulin Receptor (α-Subunit) Ab-3 (Clone 47-9); Cat. #MS-633-PABX) was added at the concentrations indicated, with or without insulin as indicated, and the cells were incubated further for 24 hours.
Left, center, and right bars are insulin, 10 nM, and 20 nM respectively. […] In each case, results were normalized to control groups. The P values for 10 nM and 20 nM are as follows: control vs 10 nM Ab: p=8.616 E-5; control vs 20 nM Ab: p=1.745 E-5; control vs 10 nM Ab+insulin: p=0.00072; control vs 20 nM Ab+insulin: p=0.00558.
Background: Incorporation of labelled thymidine or its analogues reports DNA synthesis.

Assay [6] relates to p21 (WAF1/Cip1). In words: p21 (WAF1/Cip1) expression in Ha-Ras infected keratinocytes, Western blot. Conditions: control cells, TPA 100 nM for 24 hr, FIG. 10A. The format is cell-based, mouse. On the procedure: Primary mouse keratinocytes derived from control and IR-KO mice were infected with Ha-Ras, and 24 hr later were treated with TPA [100 nM] or vehicle for 24 hr. Expression of p21 (WAF1/Cip1) was evaluated by Western blot analysis, using a polyclonal antibody. Localization of p21 in the cells was examined by staining for DAPI and p21 (WAF1/Cip1) and visualization using fluorescent microscopy.

Consider insulin, for which the “effect on scratch closure in IR-inactivated cells” value in assay [1] is listed as “eliminated by IR inactivation”. For the same compound, the “epidermal differentiation by histological analysis” value in assay [2] (10^-6M insulin or 10^-7M IGF1 in growth medium, FIG. 3A) is “supported epidermal differentiation”. In assay [2], the “expression of K14 (marker of proliferating keratinocytes)” value is “more rapid disappearance”; the “expression of the differentiation markers Keratin-1 and Loricrin” value was “enhanced”. Besides, in assay [3], the “assembly of K1 (keratin 1 in the insoluble fraction)” value is reported as “enhanced assembly of K1”. In addition, the “effect on scratch closure in presence of mitomycin C” value in assay [4] (25 microgram/ml mitomycin C 4 hours prior to wounding, FIG. 6A bottom) is given as “not eliminated”. Moreover, the scratch closure entry in assay [4] (insulin 10^-6M, IGF-1 10^-7M, 24 hours, absence of mitomycin C, FIG. 6A top) was “facilitated scratch closure more than IGF”. Besides, the “SCC cancer cell proliferation with insulin alone” value in assay [5] is recorded as “increased the proliferation”.
For the compound IGF1, in assay [2], the “expression of K14 (marker of proliferating keratinocytes)” value is listed as “maintained abnormally in apical layers”; the “expression of the differentiation markers Keratin-1 and Loricrin” value is recorded as “delayed expression”. The “assembly of K1 (keratin 1 in the insoluble fraction)” value in assay [3] was “opposite effect”.
Consider `CCCCCCCCCCCCCC(=O)O[C@@H]1[C@@H](C)[C@@]2(O)[C@@H](C=C(CO)C[C@]3(O)C(=O)C(C)=C[C@@H]23)[C@@H]2C(C)(C)[C@]12OC(C)=O` [TPA, 12-O-tetradecanoylphorbol-13-acetate], for which the “levels of p21, a marker of cellular senescence” value in assay [6] was “decreased levels of p21”.
